Measurements from US9201014B2, “Development of photostable near-IR cyanine dyes for in vivo imaging” (National University of Singapore, priority 2010, dated 2015).

Experiments:
[1] = Primary screening of photostability of the CyNA library (time-course fluorescence, 8 h); type: physicochemical; parameters: F/Fo, fluorescent intensity at 8 hours vs 0 hours: unit: %; settings: 10 μM in HEPES 100 mM pH 7.4, 2% DMSO
Procedure: As a primary evaluation of photo stability, the decrease in fluorescence intensity of the 80 CyNA compounds was measured (see Table 2). The average decrease in fluorescence intensity after 8 hours of irradiation by a xenon lamp was approximately 18%. A subset of the most photostable compounds (i.e., F/Fo reported in Table 2 was greater than or equal to 95) was examined under stronger irradiation in various buffers.
10-μM CyNA solutions in 100 mM HEPES buffer (pH 7.4) containing 2% DMSO were placed in a 96-well black plate, and fluorescence intensity measurements were recorded every 10 minutes for a total period of 8 hours (excitation-emission: 790-820 nm). A subset of fourteen compounds selected according to their F8h/Fo quotients, quantum yields and maximum relative fluorescence units (RFU) values was further evaluated in a secondary screening

[2] = Absorbance and fluorescence maximum wavelengths and quantum yields of the CyNA library; type: physicochemical; settings: for λabs, absorbance maximum wavelength / λem, fluorescence maximum wavelength: CyNA library; for φ, quantum yield: in DMSO, Cardiogreen as standard
Procedure: Since the k values of the different CyNA compounds indicated some dependency on the chemical structure of the amine, the CyNA scaffold was derivatized with a broad range of primary amines (FIGS. 4A-4C). The fluorescence properties of the 80-member CyNA library were measured. The absorption maximum wavelengths ranged from 802 nm to 806 nm, emission maximum wavelengths ranged from 817 nm to 823 nm, and the average quantum yield was approximately 0.10 (Table 2).
All the chemicals (building block amines plus others) and solvents were purchased from Sigma Aldrich, Alfa Aesar, Fluka, MERCK or Acros, and used without further purification. ^1H-NMR and ^13C-NMR spectra were recorded on Bruker Avance 300 NMR and 500 NMR spectrometers, and chemical shifts are expressed in parts per million (ppm). High-resolution mass spectrometry (HRMS) data was recorded on a Micromass VG 7035. Photobleaching experiments were performed using a UVP Blak-Ray® B-100AP high intensity UV lamp (100 W, 365 nm) Spectroscopic and quantum yield data were measured on a SpectraMax M2 spectrophotometer (Molecular Devices), and the data analysis was performed using GraphPrism 5.0. Photobleaching measurements were performed using an Eclipse Ti-U Nikon microscope (filter cube: 750/800) attached to Ti:sappire oscillator that operated in continuous wave mode, and the data was processed using the software NIS-Elements 3.10. In vivo images were taken in an IVIS Spectrum imaging system (Caliper Life Sciences).

## CCCCC(CC)CN(C(C)=O)C1=C(/C=C/C2=[N+](CCC)c3ccccc3C2(C)C)CCC/C1=C\C=C1\N(CCC)c2ccccc2C1(C)C (stereo not shown) [CyNA-230]
[1]
  F/Fo, fluorescent intensity at 8 hours vs 0 hours: 80
  max RFU, maximum relative fluorescence units: 77.7
[2]
  λabs, absorbance maximum wavelength: 805 nm
  λem, fluorescence maximum wavelength: 822 nm
  φ, quantum yield: 0.09

## CCCCCCCCCCCCCCN(C(C)=O)C1=C(/C=C/C2=[N+](CCC)c3ccccc3C2(C)C)CCC/C1=C\C=C1\N(CCC)c2ccccc2C1(C)C [CyNA-28]
[1]
  F/Fo, fluorescent intensity at 8 hours vs 0 hours: 87
  max RFU, maximum relative fluorescence units: 23.9
[2]
  λabs, absorbance maximum wavelength: 804 nm
  λem, fluorescence maximum wavelength: 818 nm
  φ, quantum yield: 0.05

## CCCN1/C(=C/C=C2\CCCC(/C=C/C3=[N+](CCC)c4ccccc4C3(C)C)=C2N(C(C)=O)C2CCCCCCC2)C(C)(C)c2ccccc21 [CyNA-219]
[1]
  F/Fo, fluorescent intensity at 8 hours vs 0 hours: 65
  max RFU, maximum relative fluorescence units: 902.7
[2]
  λabs, absorbance maximum wavelength: 804 nm
  λem, fluorescence maximum wavelength: 822 nm
  φ, quantum yield: 0.14

## CCCCN(C(C)=O)C1=C(/C=C/C2=[N+](CCC)c3ccccc3C2(C)C)CCC/C1=C\C=C1\N(CCC)c2ccccc2C1(C)C [CyNA-373]
[1]
  F/Fo, fluorescent intensity at 8 hours vs 0 hours: 76
  max RFU, maximum relative fluorescence units: 567.2
[2]
  λabs, absorbance maximum wavelength: 805 nm
  λem, fluorescence maximum wavelength: 820 nm
  φ, quantum yield: 0.07

## CCCN1/C(=C/C=C2\CCCC(/C=C/C3=[N+](CCC)c4ccccc4C3(C)C)=C2N(CCc2ccc(OC)c(OC)c2)C(C)=O)C(C)(C)c2ccccc21 [CyNA-266]
[1]
  F/Fo, fluorescent intensity at 8 hours vs 0 hours: 99
  max RFU, maximum relative fluorescence units: 541.8
[2]
  λabs, absorbance maximum wavelength: 804 nm
  λem, fluorescence maximum wavelength: 823 nm
  φ, quantum yield: 0.08

## CCCN1/C(=C/C=C2\CCCC(/C=C/C3=[N+](CCC)c4ccccc4C3(C)C)=C2N(Cc2ccc(F)cc2F)C(C)=O)C(C)(C)c2ccccc21 [CyNA-399]
[1]
  F/Fo, fluorescent intensity at 8 hours vs 0 hours: 95
  max RFU, maximum relative fluorescence units: 775.5
[2]
  λabs, absorbance maximum wavelength: 804 nm
  λem, fluorescence maximum wavelength: 819 nm
  φ, quantum yield: 0.10

## CCCN1/C(=C/C=C2\CCCC(/C=C/C3=[N+](CCC)c4ccccc4C3(C)C)=C2N(Cc2c(OC)cc(OC)cc2OC)C(C)=O)C(C)(C)c2ccccc21 [CyNA-336]
[1]
  F/Fo, fluorescent intensity at 8 hours vs 0 hours: 85
  max RFU, maximum relative fluorescence units: 827.7
[2]
  λabs, absorbance maximum wavelength: 804 nm
  λem, fluorescence maximum wavelength: 820 nm
  φ, quantum yield: 0.11

## CCCN1/C(=C/C=C2\CCCC(/C=C/C3=[N+](CCC)c4ccccc4C3(C)C)=C2N(CCc2ccc(CC)cc2)C(C)=O)C(C)(C)c2ccccc21 [CyNA-201]
[1]
  F/Fo, fluorescent intensity at 8 hours vs 0 hours: 33
  max RFU, maximum relative fluorescence units: 52.6
[2]
  λabs, absorbance maximum wavelength: 803 nm
  λem, fluorescence maximum wavelength: 820 nm
  φ, quantum yield: 0.08

## CCCN1/C(=C/C=C2\CCCC(/C=C/C3=[N+](CCC)c4ccccc4C3(C)C)=C2N(Cc2cccc(F)c2F)C(C)=O)C(C)(C)c2ccccc21 [CyNA-351]
[1]
  F/Fo, fluorescent intensity at 8 hours vs 0 hours: 52
  max RFU, maximum relative fluorescence units: 555.4
[2]
  λabs, absorbance maximum wavelength: 805 nm
  λem, fluorescence maximum wavelength: 818 nm
  φ, quantum yield: 0.10

## CCCN1/C(=C/C=C2\CCCC(/C=C/C3=[N+](CCC)c4ccccc4C3(C)C)=C2N(CC(C)CC)C(C)=O)C(C)(C)c2ccccc21 (stereo not shown) [CyNA-574]
[1]
  F/Fo, fluorescent intensity at 8 hours vs 0 hours: 38
  max RFU, maximum relative fluorescence units: 321.1
[2]
  λabs, absorbance maximum wavelength: 803 nm
  λem, fluorescence maximum wavelength: 818 nm
  φ, quantum yield: 0.06

## CCCN1/C(=C/C=C2\CCCC(/C=C/C3=[N+](CCC)c4ccccc4C3(C)C)=C2N(Cc2ccccc2Br)C(C)=O)C(C)(C)c2ccccc21 [CyNA-329]
[1]
  F/Fo, fluorescent intensity at 8 hours vs 0 hours: 99
  max RFU, maximum relative fluorescence units: 348.8
[2]
  λabs, absorbance maximum wavelength: 806 nm
  λem, fluorescence maximum wavelength: 821 nm
  φ, quantum yield: 0.10
